Experimental data published in patent publication US20100029657A1, “Bridged, Bicyclic Heterocyclic or Spiro Bicyclic Heterocyclic Derivatives of Pyrazolo[1, 5-A]Pyrimidines, Methods for Preparation and Uses Thereof” (Wyeth, priority 2008, published 2010).
pIC50: −log10 of the molar value.

molecular target: T1, Flag/GST-tagged recombinant human B-Raf (Homo sapiens, UniProt P15056); test: B-Raf kinase assay (phosphorylation of GST-MEK1, phospho-MEK1 antibody/Europium detection); format: biochemical; conditions: B-Raf IC50 Data for compounds of Formula A; read-out: Mean IC50
T1 construct: Flag; GST; made in house; host or cells: Sf9 insect cells (B-Raf); E. coli (MEK1-GST)
In short: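 Active B-Raf (0.2 nM) phosphorylates GST-MEK1 in 20 mM MOPS pH 7.2 buffer with DTT, vanadate and 0.01% Triton X-100. The Mg/ATP cocktail (200 μM ATP, 40 mM MgCl2) is added, then incubation runs 45 min at RT. Product is captured on anti-GST plates and detected by anti-phospho-MEK1 plus Europium-anti-rabbit fluorescence, giving % inhibition per concentration.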

T1 sequence (P15056 whole entry): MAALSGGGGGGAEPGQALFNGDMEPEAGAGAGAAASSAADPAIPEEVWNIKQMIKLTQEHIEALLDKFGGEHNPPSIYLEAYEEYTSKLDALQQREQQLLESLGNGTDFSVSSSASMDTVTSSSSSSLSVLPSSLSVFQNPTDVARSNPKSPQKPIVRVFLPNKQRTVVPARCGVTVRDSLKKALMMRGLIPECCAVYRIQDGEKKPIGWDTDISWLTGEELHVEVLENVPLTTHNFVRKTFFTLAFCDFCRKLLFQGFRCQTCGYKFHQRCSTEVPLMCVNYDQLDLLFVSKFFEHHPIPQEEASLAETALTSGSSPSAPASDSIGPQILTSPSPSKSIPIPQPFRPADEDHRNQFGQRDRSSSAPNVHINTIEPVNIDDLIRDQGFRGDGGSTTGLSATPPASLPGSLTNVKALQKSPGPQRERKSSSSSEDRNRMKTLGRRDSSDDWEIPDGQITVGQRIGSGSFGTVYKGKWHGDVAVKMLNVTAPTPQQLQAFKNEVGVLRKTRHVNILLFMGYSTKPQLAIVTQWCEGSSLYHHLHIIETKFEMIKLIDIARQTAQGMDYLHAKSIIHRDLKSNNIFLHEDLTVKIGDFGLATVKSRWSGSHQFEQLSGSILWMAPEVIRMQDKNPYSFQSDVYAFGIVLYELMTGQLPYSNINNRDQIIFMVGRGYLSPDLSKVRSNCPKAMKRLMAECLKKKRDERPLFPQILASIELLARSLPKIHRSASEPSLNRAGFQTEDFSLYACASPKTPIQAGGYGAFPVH

pIC50 | Structure (SMILES)
> 9.52 | Fc1cc(N2C[C@@H]3C[C@H]2CN3)ccc1-c1ccnc2c(-c3ccc(F)c4[nH]ncc34)c(-c3ccncc3)nn12 [Example 106, 7-{4-[(1S,4S)-2,5-diazabicyclo[2.2.1]hept-2-yl]-2-fluorophenyl}-3-(7-fluoro-1H-indazol-4-yl)-2-pyridin-4-yl pyrazolo[1 5-a]pyrimidine]
9.40 | N#CCN1C2CCC1CC(c1ccnc3c(-c4ccc(F)c5[nH]ncc45)c(-c4ccncc4)nn13)C2 (stereo not drawn) [Example 138, {3-[3-(7-fluoro-1H-indazol-4-yl)-2-pyridin-4-ylpyrazolo[1,5-a]pyrimidin-7-yl]-8-azabicyclo[3.2.1]oct-8-yl}acetonitrile]
7.35 | CC(C)(C)OC(=O)N1C[C@@H]2C[C@H]1CN2c1ccc(-c2ccnc3c(-c4ccc(Cl)c5[nH]ncc45)c(-c4ccncc4)nn23)cc1 [Example 125, tert-butyl (1S,4S)-5-{4-[3-(7-chloro-1H-indazol-4-yl)-2-pyridin-4-ylpyrazolo[1,5-a]pyrimidin-7-yl]phenyl}-2,5-diazabicyclo[2.2.1]heptane-2-carboxylate]
8.82 | CN1C[C@@H]2C[C@H]1CN2c1ccc(-c2ccnc3c(-c4cccc5[nH]ncc45)c(-c4ccncc4)nn23)cc1 [Example 35, 3-(1H-indazol-4-yl)-7-(4-((1S,4S)-5-methyl-2,5-diazabicyclo[2.2.1]heptan-2-yl)phenyl)-2-(pyridin-4-yl)pyrazolo[1,5-a]pyrimidine]
8.04 | CC(C)(C)OC(=O)N1C[C@@H]2C[C@H]1CN2Cc1cc(-c2ccnc3c(-c4cccc5[nH]ncc45)c(-c4ccncc4)nn23)co1 [Example 194, tert-butyl (1S,4S)-5-({4-[3-(1H-indazol-4-yl)-2-pyridin-4-ylpyrazolo[1,5-a]pyrimidin-7-yl]furan-2-yl}methyl)-2,5-diazabicyclo[2.2.1]heptane-2-carboxylate]
> 9.52 | CN1C[C@@H]2C[C@H]1CN2c1ccc(-c2ccnc3c(-c4cccc(O)c4)c(-c4ccncc4)nn23)c(F)c1 [Example 134, 3-(7-{2-fluoro-4-[(1S,4S)-5-methyl-2,5-diazabicyclo[2.2.1]hept-2-yl]phenyl}-2-pyridin-4-ylpyrazolo[1,5-a]pyrimidin-3-yl)phenol]
> 9.52 | CN1C[C@@H]2C[C@H]1CN2c1ccc(-c2ccnc3c(-c4cccc5[nH]ncc45)c(-c4ccncc4)nn23)c(Cl)c1 [Example 98, 7-[2-Chloro-4-((1S,4S)-5-methyl-2,5-diaza-bicyclo[2.2.1]hept-2-yl)-phenyl]-3-(1H-indazol-4-yl)-2-pyridin-4-yl-pyrazolo[1,5-a]pyrimidine]
8.57 | Fc1cc(-c2ccnc3c(-c4cccc5[nH]ncc45)c(-c4ccncc4)nn23)cc(F)c1N1C[C@@H]2C[C@H]1CN2 [Example 161, 7-{4-[(1S,4S)-2,5-diazabicyclo[2.2.1]hept-2-yl]-3,5-difluorophenyl}-3-(1H-indazol-4-yl)-2-pyridin-4-ylpyrazolo[1,5-a]pyrimidine]
8.49 | Fc1ccc(-c2ccnc3c(-c4cccc5[nH]ncc45)c(-c4ccncc4)nn23)c(N2C[C@@H]3C[C@H]2CN3)c1 [Example 46, 7-(2-((1S,4S)-2,5-Diazabicyclo[2.2.1]heptan-2-yl)-4-fluorophenyl)-3-(1H-indazol-4-yl)-2-(pyridin-4-yl)pyrazolo[1,5-a]pyrimidine]
8.04 | NC(=O)N1C2CCC1CC(c1ccnc3c(-c4cccc5[nH]ncc45)c(-c4ccncc4)nn13)C2 (stereo not drawn) [Example 115, 3-[3-(1H-indazol-4-yl)-2-pyridin-4-ylpyrazolo[1,5-a]pyrimidin-7-yl]-8-azabicyclo[3.2.1]octane-8-carboxamide]
8.19 | c1cc(-c2c(-c3ccncc3)nn3c2nccc3[C@H]2CC[C@H](N3C4CCC3COC4)CC2)c2cn[nH]c2c1 (relative stereo) [Example 151, 3-(1H-indazol-4-yl)-7-[trans-4-(3-oxa-8-azabicyclo[3.2.1]oct-8-yl)cyclohexyl]-2-pyridin-4-ylpyrazolo[1,5-a]pyrimidine]

Structure (SMILES) | pIC50
Fc1ccc(-c2c(-c3ccncc3)nn3c(C4CC5CCC(C4)N5)ccnc23)c2cn[nH]c12 (stereo not drawn) [Example 137, 7-(8-azabicyclo[3.2.1]oct-3-yl)-3-(7-fluoro-1H-indazol-4-yl)-2-pyridin-4-ylpyrazolo[1,5-a]pyrimidine] | 8.42
